# Test system: Human immunodeficiency virus 1
# Experiment: Anti-HIV activity against HIV-1 IIIB infected in human MT4 cells assessed as reduction in virus-induced cytopathic effect incubated for 5 days by MTT assay
# Assay type: functional, organism-based
# Conditions: Human immunodeficiency virus 1, IIIB, MT4, 120 h
row,Structure (SMILES),EC50 [µM]
1,Cc1cn([C@H]2C[C@H](N=[N+]=[N-])[C@@H](CO)O2)c(=O)[nH]c1=O [ZIDOVUDINE],0.029

# Test system: Human immunodeficiency virus 2
# Experiment: Anti-HIV activity against HIV2 ROD infected in human MT4 cells assessed as reduction in virus-induced cytopathic effect incubated for 5 days by MTT assay
# Assay type: functional, organism-based
# Conditions: Human immunodeficiency virus 2, ROD, MT4, 120 h
row,Structure (SMILES),EC50 [µM]
1,CCCCNc1cc(Oc2c(OC)cc3cc(C#N)ccc3c2OC)nc(Nc2ccc(C#N)cc2)n1,> 1000
2,COc1cc2cc(C#N)ccc2c(OC)c1Oc1cc(NC(C)C)nc(Nc2ccc(C#N)cc2)n1,> 1000
3,Cc1cn([C@H]2C[C@H](N=[N+]=[N-])[C@@H](CO)O2)c(=O)[nH]c1=O [ZIDOVUDINE],0.02

# Test system: not listed separately
# Experiment: Cytotoxicity against human MT4 cells assessed as reduction in cell viability incubated for 5 days by MTT assay
# Assay type: cell-based
# Conditions: human, MT4 cells; time 5 day
row,Structure (SMILES),CC50 at 120 h [µM]
1,CCCCNc1cc(Oc2c(OC)cc3cc(C#N)ccc3c2OC)nc(Nc2ccc(C#N)cc2)n1,> 125
2,COc1cc2cc(C#N)ccc2c(OC)c1Oc1cc(NC(C)C)nc(Nc2ccc(C#N)cc2)n1,> 125
3,Cc1cn([C@H]2C[C@H](N=[N+]=[N-])[C@@H](CO)O2)c(=O)[nH]c1=O [ZIDOVUDINE],> 2

# Test system: Human immunodeficiency virus 1
# Experiment: Antiviral activity against HIV1 harboring reverse transcriptase L100I mutant infected in human MT4 cells assessed as protection against virus-induced cytopathic effect incubated for 5 days by MTT assay
# Assay type: functional, organism-based
# Conditions: Human immunodeficiency virus 1, MT4, 120 h
row,Structure (SMILES),EC50 [µM]
1,CCCCNc1cc(Oc2c(OC)cc3cc(C#N)ccc3c2OC)nc(Nc2ccc(C#N)cc2)n1,0.63
2,Cc1cc(C#N)cc(C)c1Oc1nc(Nc2ccc(C#N)cc2)nc(N)c1Br [ETRAVIRINE],0.014
3,Cc1cn([C@H]2C[C@H](N=[N+]=[N-])[C@@H](CO)O2)c(=O)[nH]c1=O [ZIDOVUDINE],0.01

# Test system: Human immunodeficiency virus 1
# Experiment: Antiviral activity against HIV1 harboring reverse transcriptase K103N mutant infected in human MT4 cells assessed as protection against virus-induced cytopathic effect incubated for 5 days by MTT assay
# Assay type: functional, organism-based
# Conditions: Human immunodeficiency virus 1, MT4, 120 h
row,Structure (SMILES),EC50 [µM]
1,CCCCNc1cc(Oc2c(OC)cc3cc(C#N)ccc3c2OC)nc(Nc2ccc(C#N)cc2)n1,0.031
2,COc1cc2cc(C#N)ccc2c(OC)c1Oc1cc(NC(C)C)nc(Nc2ccc(C#N)cc2)n1,0.47
3,Cc1cc(C#N)cc(C)c1Oc1nc(Nc2ccc(C#N)cc2)nc(N)c1Br [ETRAVIRINE],0.0038
4,Cc1cn([C@H]2C[C@H](N=[N+]=[N-])[C@@H](CO)O2)c(=O)[nH]c1=O [ZIDOVUDINE],0.032

# Test system: Human immunodeficiency virus 1
# Experiment: Antiviral activity against HIV1 harboring reverse transcriptase Y181C mutant infected in human MT4 cells assessed as protection against virus-induced cytopathic effect incubated for 5 days by MTT assay
# Assay type: functional, organism-based
# Conditions: Human immunodeficiency virus 1, MT4, 120 h
row,Structure (SMILES),EC50 [µM]
1,Cc1cc(C#N)cc(C)c1Oc1nc(Nc2ccc(C#N)cc2)nc(N)c1Br [ETRAVIRINE],0.021
2,Cc1cn([C@H]2C[C@H](N=[N+]=[N-])[C@@H](CO)O2)c(=O)[nH]c1=O [ZIDOVUDINE],0.031

# Test system: Human immunodeficiency virus 1
# Experiment: Antiviral activity against HIV1 harboring reverse transcriptase Y188L mutant infected in human MT4 cells assessed as protection against virus-induced cytopathic effect incubated for 5 days by MTT assay
# Assay type: functional, organism-based
# Conditions: Human immunodeficiency virus 1, MT4, 120 h
row,Structure (SMILES),EC50 [µM]
1,CCCCNc1cc(Oc2c(OC)cc3cc(C#N)ccc3c2OC)nc(Nc2ccc(C#N)cc2)n1,3.12
2,Cc1cc(C#N)cc(C)c1Oc1nc(Nc2ccc(C#N)cc2)nc(N)c1Br [ETRAVIRINE],0.03
3,Cc1cn([C@H]2C[C@H](N=[N+]=[N-])[C@@H](CO)O2)c(=O)[nH]c1=O [ZIDOVUDINE],0.029

# Test system: Human immunodeficiency virus 1
# Experiment: Antiviral activity against HIV1 harboring reverse transcriptase E138K mutant infected in human MT4 cells assessed as protection against virus-induced cytopathic effect incubated for 5 days by MTT assay
# Assay type: functional, organism-based
# Conditions: Human immunodeficiency virus 1, MT4, 120 h
row,Structure (SMILES),EC50 [µM]
1,CCCCNc1cc(Oc2c(OC)cc3cc(C#N)ccc3c2OC)nc(Nc2ccc(C#N)cc2)n1,0.064
2,COc1cc2cc(C#N)ccc2c(OC)c1Oc1cc(NC(C)C)nc(Nc2ccc(C#N)cc2)n1,0.047
3,Cc1cc(C#N)cc(C)c1Oc1nc(Nc2ccc(C#N)cc2)nc(N)c1Br [ETRAVIRINE],0.021
4,Cc1cn([C@H]2C[C@H](N=[N+]=[N-])[C@@H](CO)O2)c(=O)[nH]c1=O [ZIDOVUDINE],0.051

# Test system: Human immunodeficiency virus 1
# Experiment: Antiviral activity against HIV1 harboring reverse transcriptase F227L/V106A mutant infected in human MT4 cells assessed as protection against virus-induced cytopathic effect incubated for 5 days by MTT assay
# Assay type: functional, organism-based
# Conditions: Human immunodeficiency virus 1, MT4, 120 h
row,Structure (SMILES),EC50 [µM]
1,CCCCNc1cc(Oc2c(OC)cc3cc(C#N)ccc3c2OC)nc(Nc2ccc(C#N)cc2)n1,> 1000
2,Cc1cc(C#N)cc(C)c1Oc1nc(Nc2ccc(C#N)cc2)nc(N)c1Br [ETRAVIRINE],0.027
3,Cc1cn([C@H]2C[C@H](N=[N+]=[N-])[C@@H](CO)O2)c(=O)[nH]c1=O [ZIDOVUDINE],0.031

# Test system: not listed separately
# Experiment: Resistance fold, ratio of EC50 for HIV1 harboring reverse transcriptase Y181C mutant […] to EC50 for wild type HIV1 […]
# Assay type: functional
# Conditions: not given
row,Structure (SMILES),Ratio EC50
1,Cc1cn([C@H]2C[C@H](N=[N+]=[N-])[C@@H](CO)O2)c(=O)[nH]c1=O [ZIDOVUDINE],1

# Test system: not listed separately
# Experiment: Resistance fold, ratio of EC50 for HIV1 harboring reverse transcriptase L100I mutant […] to EC50 for wild type HIV1 […]
# Assay type: functional
# Conditions: not given
row,Structure (SMILES),Ratio EC50
1,CCCCNc1cc(Oc2c(OC)cc3cc(C#N)ccc3c2OC)nc(Nc2ccc(C#N)cc2)n1,24

# Test system: not listed separately
# Experiment: Resistance fold, ratio of EC50 for HIV1 harboring reverse transcriptase K103N mutant […] to EC50 for wild type HIV1 […]
# Assay type: functional
# Conditions: not given
row,Structure (SMILES),Ratio EC50
1,CCCCNc1cc(Oc2c(OC)cc3cc(C#N)ccc3c2OC)nc(Nc2ccc(C#N)cc2)n1,1
2,COc1cc2cc(C#N)ccc2c(OC)c1Oc1cc(NC(C)C)nc(Nc2ccc(C#N)cc2)n1,19
3,Cc1cn([C@H]2C[C@H](N=[N+]=[N-])[C@@H](CO)O2)c(=O)[nH]c1=O [ZIDOVUDINE],2

# Test system: Human immunodeficiency virus 1
# Experiment: Antiviral activity against HIV1 harboring reverse transcriptase K103N/Y181C double mutant infected in human MT4 cells assessed as protection against virus-induced cytopathic effect incubated for 5 days by MTT assay
# Assay type: functional, organism-based
# Conditions: Human immunodeficiency virus 1, MT4, 120 h
row,Structure (SMILES),EC50 [µM]
1,CCCCNc1cc(Oc2c(OC)cc3cc(C#N)ccc3c2OC)nc(Nc2ccc(C#N)cc2)n1,1.52
2,Cc1cc(C#N)cc(C)c1Oc1nc(Nc2ccc(C#N)cc2)nc(N)c1Br [ETRAVIRINE],0.052
3,Cc1cn([C@H]2C[C@H](N=[N+]=[N-])[C@@H](CO)O2)c(=O)[nH]c1=O [ZIDOVUDINE],0.033

# Test system: not listed separately
# Experiment: Selectivity index, ratio of CC50 for cytotoxicity against human MT4 cells to EC50 of Anti-HIV activity against HIV-1 IIIB infected in human MT4
# Assay type: toxicity, cell-based
# Conditions: read-out: Selectivity Index
row,Structure (SMILES),selectivity ratio
1,CCCCNc1cc(Oc2c(OC)cc3cc(C#N)ccc3c2OC)nc(Nc2ccc(C#N)cc2)n1,> 9600
2,COc1cc2cc(C#N)ccc2c(OC)c1Oc1cc(NC(C)C)nc(Nc2ccc(C#N)cc2)n1,> 10400
3,Cc1cn([C@H]2C[C@H](N=[N+]=[N-])[C@@H](CO)O2)c(=O)[nH]c1=O [ZIDOVUDINE],> 240

# Test system: not listed separately
# Experiment: Resistance fold, ratio of EC50 for HIV1 harboring reverse transcriptase Y188L mutant […] to EC50 for wild type HIV1 […]
# Assay type: functional
# Conditions: not given
row,Structure (SMILES),Ratio EC50
1,CCCCNc1cc(Oc2c(OC)cc3cc(C#N)ccc3c2OC)nc(Nc2ccc(C#N)cc2)n1,119
2,Cc1cn([C@H]2C[C@H](N=[N+]=[N-])[C@@H](CO)O2)c(=O)[nH]c1=O [ZIDOVUDINE],1

# Test system: not listed separately
# Experiment: Resistance fold, ratio of EC50 for HIV1 harboring reverse transcriptase E138K mutant […] to EC50 for wild type HIV1 […]
# Assay type: functional
# Conditions: not given
row,Structure (SMILES),Ratio EC50
1,CCCCNc1cc(Oc2c(OC)cc3cc(C#N)ccc3c2OC)nc(Nc2ccc(C#N)cc2)n1,2
2,COc1cc2cc(C#N)ccc2c(OC)c1Oc1cc(NC(C)C)nc(Nc2ccc(C#N)cc2)n1,2
3,Cc1cn([C@H]2C[C@H](N=[N+]=[N-])[C@@H](CO)O2)c(=O)[nH]c1=O [ZIDOVUDINE],2

# Test system: not listed separately
# Experiment: Resistance fold, ratio of EC50 for HIV1 harboring reverse transcriptase F227L/V106A double mutant […] to EC50 for wild type HIV1 […]
# Assay type: functional
# Conditions: not given
row,Structure (SMILES),Ratio EC50
1,CCCCNc1cc(Oc2c(OC)cc3cc(C#N)ccc3c2OC)nc(Nc2ccc(C#N)cc2)n1,>38461
2,Cc1cn([C@H]2C[C@H](N=[N+]=[N-])[C@@H](CO)O2)c(=O)[nH]c1=O [ZIDOVUDINE],1

# Test system: not listed separately
# Experiment: Resistance fold, ratio of EC50 for HIV1 harboring reverse transcriptase K103N/Y181C double mutant […] to EC50 for wild type HIV1 […]
# Assay type: functional
# Conditions: not given
row,Structure (SMILES),Ratio EC50
1,CCCCNc1cc(Oc2c(OC)cc3cc(C#N)ccc3c2OC)nc(Nc2ccc(C#N)cc2)n1,58
2,Cc1cn([C@H]2C[C@H](N=[N+]=[N-])[C@@H](CO)O2)c(=O)[nH]c1=O [ZIDOVUDINE],1

# Target: Human immunodeficiency virus type 1 reverse transcriptase (Human immunodeficiency virus 1, UniProt Q72547)
# Experiment: Inhibition of wild type HIV1 reverse transcriptase using oligo(dT)16 as primer measured after 40 mins by picogreen-dye based spectrofluorimetric analysis
# Conditions: not given
row,Structure (SMILES),IC50 [µM]
1,CCCCNc1cc(Oc2c(OC)cc3cc(C#N)ccc3c2OC)nc(Nc2ccc(C#N)cc2)n1,0.17
2,COc1cc2cc(C#N)ccc2c(OC)c1Oc1cc(NC(C)C)nc(Nc2ccc(C#N)cc2)n1,0.14

# Test system: not listed separately
# Experiment: Water solubility of compound at pH 2 at 0.1 to 10 mg by HPLC-UV analysis
# Assay type: physicochemical
# Conditions: dose 0.1-10 mg
row,Structure (SMILES),solubility [µg/mL]
1,Cc1cc(C#N)cc(C)c1Oc1nc(Nc2ccc(C#N)cc2)nc(N)c1Br [ETRAVIRINE],127

# Test system: not listed separately
# Experiment: Water solubility of compound at pH 7 at 0.1 to 10 mg by HPLC-UV analysis
# Assay type: physicochemical
# Conditions: dose 0.1-10 mg
row,Structure (SMILES),solubility [µg/mL]
1,Cc1cc(C#N)cc(C)c1Oc1nc(Nc2ccc(C#N)cc2)nc(N)c1Br [ETRAVIRINE],< 1

# Test system: not listed separately
# Experiment: Water solubility of compound at pH 7.4 at 0.1 to 10 mg by HPLC-UV analysis
# Assay type: physicochemical
# Conditions: dose 0.1-10 mg
row,Structure (SMILES),solubility [µg/mL]
1,Cc1cc(C#N)cc(C)c1Oc1nc(Nc2ccc(C#N)cc2)nc(N)c1Br [ETRAVIRINE],1
